2 compounds from patent publication US20080319065A1, “Systemic and Intrathecal Effects of a Novel Series of Phospholipase A2 Inhibitors on Hyperalgesia and Spinal Pge2 Release” (The Regents of the University of California, priority 2005, published 2008) can be followed below.

In data set [1] the target is T1, Group VIA iPLA2 (GVIA PLA2) (Homo sapiens, UniProt O60733).
T1 sequence (O60733 1-806): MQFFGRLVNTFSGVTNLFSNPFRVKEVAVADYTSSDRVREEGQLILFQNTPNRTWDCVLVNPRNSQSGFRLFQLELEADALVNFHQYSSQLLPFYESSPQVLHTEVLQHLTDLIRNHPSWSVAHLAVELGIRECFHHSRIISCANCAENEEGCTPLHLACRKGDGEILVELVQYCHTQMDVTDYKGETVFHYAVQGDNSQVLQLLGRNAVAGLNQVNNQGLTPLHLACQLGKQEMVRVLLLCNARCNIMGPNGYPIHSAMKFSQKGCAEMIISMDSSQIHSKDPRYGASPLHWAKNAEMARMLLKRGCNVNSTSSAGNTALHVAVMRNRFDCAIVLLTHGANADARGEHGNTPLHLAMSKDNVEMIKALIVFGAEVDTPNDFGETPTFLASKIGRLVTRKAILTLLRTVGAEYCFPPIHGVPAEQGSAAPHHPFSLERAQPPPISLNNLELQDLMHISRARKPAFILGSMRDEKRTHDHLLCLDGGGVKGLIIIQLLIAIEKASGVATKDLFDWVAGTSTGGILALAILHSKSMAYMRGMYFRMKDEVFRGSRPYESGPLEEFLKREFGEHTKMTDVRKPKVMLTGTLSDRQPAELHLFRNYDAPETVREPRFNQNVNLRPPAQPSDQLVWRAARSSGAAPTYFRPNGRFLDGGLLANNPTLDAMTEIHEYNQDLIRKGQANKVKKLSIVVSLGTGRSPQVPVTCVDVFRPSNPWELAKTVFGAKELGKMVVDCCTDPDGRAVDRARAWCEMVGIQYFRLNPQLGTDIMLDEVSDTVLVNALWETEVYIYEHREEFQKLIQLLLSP
Kind of data set: In vitro Group VIA iPLA2 mixed micelle assay. In kind it is biochemical.

For another data set, the target named is T2, GVIA PLA2 (Homo sapiens, UniProt O60733).
T2 sequence (O60733 1-806): T1 sequence (O60733 1-806)
Description: Time dependence and reversibility of GVIA PLA2 inhibition. In kind it is biochemical. As to the method:
GVIA PLA2 (25 ng) was preincubated with either AX010 or AX0073 (5 μM) for 0, 5, 15 or 30 minutes and then assayed in the standard GVIA PLA2 assay mix containing 5 μM inhibitor. The final concentration of the inhibitors in the assay mix was 0.01 mole fraction, and the samples were incubated for 30 minutes at 40° C. […] In the latter respect, 25 ng of GVIA PLA2 was pre-incubated with 10 μM AX010 or AX073 for 10 minutes before diluting the enzyme 1:50 into the standard GVIA PLA2 assay mix lacking inhibitor, and incubating for 30 minutes at 40° C. The final inhibitor concentration in these assays was 0.0004 mole fraction, well below surface concentrations that either AX010 or AX073 inhibit the enzyme.

For data set [2], the system named is intrathecal SP evoked thermal hyperalgesia. Kind of data set: Intrathecal substance P-induced thermal hyperalgesia. The format is in vivo, rat. The settings on record: 3 mg/kg IP, 30 min before IT SP. An excerpt: Male Holtzman Sprague-Dawley rats (300-350 g; Harlan Industries) were individually housed and maintained on a 12-hr light/dark cycle with free access to food and water. For spinal drug injections, lumbar catheters were implanted in rats under isoflurane anesthesia according to a modification of the procedure described by Yaksh (Yaksh and Rudy, supra, 1976). A polyethylene catheter (PE-5; Spectranetics, 0.014 in OD) was inserted into the intrathecal space and advanced to the rostral edge of the lumbar enlargement through an incision in the atlanto-occipital membrane. Five days after implantation rats were entered into the study. […] A timer was actuated with the light source, and latency was defined as the time required for the paw to show a brisk withdrawal as detected by photodiode motion sensors that stop the timer and terminate the stimulus. Paw withdrawal latencies (PWL) were assessed prior to any treatment (control) and at intervals after treatment. Left (injured) and right (uninjured) paw withdrawal latencies were assessed and plotted versus time. In addition, difference latency scores (uninjured-injured) were calculated and the average withdrawal latency over the post-injection observation intervals are calculated for comparison between treatment groups. […] The mean PWL of the left and right paws was assessed at each time point. […]

Consider `CCC(=O)C(=O)NCCCC(=O)OC` [AX010], for which the “inhibition of GVIA PLA2 (iPLA2), in words” value in data set [1] is reported as “limited inhibition of GVIA PLA2”. In addition, the “Group VIA XI(50), class” value in data set [1] (at 0.091 mole fraction) is “L.D. (between 25% and 50% inhibition at 0.091 mole fraction)”. For the same compound, the “Inhibition of GVIA PLA2” value in data set [1] (at highest dose) is “LD (limited inhibition (25-50%) at highest dose)”. Further, the “reversibility of GVIA PLA2 inhibition” value on GVIA PLA2 (pre-incubated with 10 μM for 10 minutes, diluted 1:50, final 0.0004 mole fraction) is listed as “freely reversible inhibitors”. Moreover, the “time-dependent inhibition of GVIA PLA2” value at GVIA PLA2 (preincubated 0, 5, 15 or 30 minutes, 5 μM inhibitor, 0.01 mole fraction) is “no increased potency with prolonged incubation”.

`CCCCCCCCCCCCCCC(=O)C(=O)NCCCC(=O)OCC` [AX048, Ethyl 4-[(2-oxohexadecanoyl)amino]butanoate] displayed a melting point of 63 to 64 °C. The “Group VIA XI(50) (mole fraction)” value in data set [1] (Table 1b) is on record as 0.027 ± 0.009 mole fraction. In addition, in data set [2], the “prevention of intrathecal SP-evoked thermal hyperalgesia” value is reported as “completely prevented the spinally-evoked thermal hyperalgesia”.
